Measurements taken from publication PMC4490394 (Scientific Reports, 2015).
Numbering of substitutions follows the chain as printed. Where “and” joins values, the source holds several entries; their conditions need not be identical. Identical values can stand only once.

Tests used:
AR(T877A) = target: T1, AR(T877A) (Homo sapiens, UniProt P10275, T878A)
T1 sequence (P10275 1-920 T878A): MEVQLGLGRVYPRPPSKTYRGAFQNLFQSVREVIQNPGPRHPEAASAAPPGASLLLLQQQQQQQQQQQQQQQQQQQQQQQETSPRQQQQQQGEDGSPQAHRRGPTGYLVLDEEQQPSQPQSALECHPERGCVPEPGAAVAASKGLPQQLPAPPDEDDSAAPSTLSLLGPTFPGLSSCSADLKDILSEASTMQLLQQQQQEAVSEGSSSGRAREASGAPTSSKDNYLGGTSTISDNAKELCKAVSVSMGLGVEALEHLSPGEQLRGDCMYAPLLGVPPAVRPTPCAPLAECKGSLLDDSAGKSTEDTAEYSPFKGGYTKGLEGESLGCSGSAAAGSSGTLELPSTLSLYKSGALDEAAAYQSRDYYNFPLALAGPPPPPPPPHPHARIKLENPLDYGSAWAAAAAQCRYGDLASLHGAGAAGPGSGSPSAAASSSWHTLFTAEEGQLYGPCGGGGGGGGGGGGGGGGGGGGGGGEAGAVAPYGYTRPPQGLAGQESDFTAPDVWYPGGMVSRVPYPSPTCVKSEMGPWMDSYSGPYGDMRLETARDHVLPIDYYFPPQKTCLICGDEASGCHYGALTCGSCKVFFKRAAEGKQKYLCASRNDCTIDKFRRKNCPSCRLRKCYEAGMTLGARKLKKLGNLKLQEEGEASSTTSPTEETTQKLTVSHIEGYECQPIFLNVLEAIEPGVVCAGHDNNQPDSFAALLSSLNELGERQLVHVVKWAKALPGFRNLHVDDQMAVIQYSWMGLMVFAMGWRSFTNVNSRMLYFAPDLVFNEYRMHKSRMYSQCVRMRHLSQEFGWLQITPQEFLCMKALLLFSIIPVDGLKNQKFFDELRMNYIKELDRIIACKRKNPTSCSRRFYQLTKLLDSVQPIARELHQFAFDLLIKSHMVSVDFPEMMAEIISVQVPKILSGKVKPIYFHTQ
Method: (§1) For one well in a 96-well plate, 190 ng of reporter construct DNA and 10 ng of receptor construct DNA were diluted in Opti-MEM® (Gibco). […] Luciferase activity was measured as described above.

VCaP cells = assay: VCaP proliferation assay (WST-1); type: cell-based; details: Homo sapiens, 96 h, 0.1 nM mibolerone, steroid-depleted medium, 4 days, WST-1, read-out: IC50, androgen-induced VCaP cell proliferation
Method: VCaP cells were treated with a submaximal concentration of mibolerone (0.1 nM) and increasing concentrations of test compounds in steroid-free assay medium supplemented with 4 mM GlutaMAX. After a 4-day incubation with the compounds, cell viability was measured using a WST-1 cell proliferation assay (Roche), according to manufacturer’s instructions.

[1] = system: DU-145 prostate cancer cells; assay: Viability of AR-negative cells (WST-1); type: cell-based, human; details: increasing concentrations, 4 days
AR(F876L) = target: T2, AR(F876L) (Homo sapiens, UniProt P10275, F877L)
T2 sequence (P10275 1-920 F877L): T1 sequence (P10275 1-920 T878A) with F877L, A878T
Method: as §1

[2] = Pharmacokinetic parameters in mice after 7 days oral dosing; type: in vivo; details: male, BALB/c or Balb/cOlaHsd nude, mouse, plasma, 50 mg/kg bid oral
Method: Control mice received vehicle. […] Brain samples (without olfactory bulbs and medulla oblongata) from each group and time point were pooled and homogenized before the analysis. […] Plasma and brain concentration vs. time were evaluated by noncompartmental analysis using WinNonlin® Professional v. 5.2 software (Pharsight Corporation). Brain/plasma ratios were calculated based on AUC0–24 values for plasma and brain.

subcutaneous VCaP tumors = assay: Castration-resistant VCaP xenograft, tumor volume; type: in vivo, castrated nude mice; details: 37 days
[3] = Body weight of mice bearing subcutaneous VCaP xenograft tumors; type: in vivo, castrated nude mice; details: for Change in body weight (%) d 3 / Change in body weight (%) d 9 / Change in body weight (%) d 16 / Change in body weight (%) d 23 / Change in body weight (%) d 30 / Change in body weight (%) d 37: individual animals, vs BW before treatment, 50 mg/kg
Method: BALB/c nude male mice (7 weeks old from Charles River, Germany) were subcutaneously injected with 2 million VCaP cells in 100 μL of RPMI-1640 medium and Matrigel (BD) (1:1). Tumor growth was monitored twice weekly by caliper measurements. The volume of the tumor was calculated according to the formula W^2 × L/2 (mm^3), where W is the shorter and L the longer diameter of the tumor. When the average tumor volume reached ~200 mm^3, mice were castrated or SHAM-operated under Avertin anesthesia. […] For all in vivo studies, Macrocol® (Merck) + propylene glycol +5% glucose (50:30:20, v/v/v) was used as a vehicle.

SMILES: CC(O)c1cc(C(=O)N[C@@H](C)Cn2ccc(-c3ccc(C#N)c(Cl)c3)n2)[nH]n1 (stereo partly drawn) [ODM-201]
- functional activity (agonist/antagonist) on AR(T877A) (AR(T877A)): full antagonists
- IC50 (VCaP cells): 230 nM
- effect on viability of DU-145 cells [1]: no effect
- functional activity (agonist/antagonist) on AR(F876L) (AR(F876L)): full antagonists
- AUC ([2]; read-out: AUC24): 175 µg·h/mL
- half-life ([2]; read-out: T 1/2 (plasma half-life) (converted)): 1.6 h
- antitumor activity (tumor volume) (subcutaneous VCaP tumors; 50 mg/kg oral once daily, vs castrated untreated mice): significant antitumor activity
- antitumor activity (tumor volume) (subcutaneous VCaP tumors; 50 mg/kg oral twice daily, p < 0.001 vs castrated untreated mice, p = 0.0245 vs enzalutamide): significant antitumor activity
- body weights during the treatment ([3]; 50 mg/kg twice daily oral, 37 days): did not decrease significantly
- Change in body weight (%) d 3 ([3]; ODM-201 50 mg/kg bid oral): -0.4% and 0.0% and -2.8% and -1.9% and -1.3% and -4.9% and -2.9%
- Change in body weight (%) d 9 ([3]; ODM-201 50 mg/kg bid oral): -2.1% and -2.5% and -9.8% and -0.9% and -0.5% and -4.5% and -6.9% and -1.9%
- Change in body weight (%) d 16 ([3]; ODM-201 50 mg/kg bid oral): 1.7% and -4.9% and 5.6% and 3.3% and 0.4% and -4.5% and -1.0%
- Change in body weight (%) d 23 ([3]; ODM-201 50 mg/kg bid oral): -1.7% and -6.5% and -2.8% and 0.5% and -5.4% and -11.4% and -7.2%
- Change in body weight (%) d 30 ([3]; ODM-201 50 mg/kg bid oral): -1.3% and 0.8% and -6.1% and -3.8% and 3.8% and -3.6% and -1.6% and -3.4%
- Change in body weight (%) d 37 ([3]; ODM-201 50 mg/kg bid oral): 0.4% and -6.1% and -0.5% and -6.7% and -1.2% and -6.3%
- Change in body weight (%) d 3 ([3]; ODM-201 50 mg/kg qd oral): -2.5% (2×) and -1.3% and -2.0% and -2.9% and -0.5% and -2.3% and -3.8% and -4.7% and 9.0%
- Change in body weight (%) d 9 ([3]; ODM-201 50 mg/kg qd oral): 2.2% and -1.7% and 3.5% and 6.9% and -4.9% and 3.9% and 1.8% and -0.8% and -7.7% and 7.5%
- Change in body weight (%) d 16 ([3]; ODM-201 50 mg/kg qd oral): -1.3% and 3.0% and 14.7% and 2.5% and -5.7% and 6.9% and 0.5% and 3.8% and 1.3% and 9.5%
- Change in body weight (%) d 23 ([3]; ODM-201 50 mg/kg qd oral): 6.0% and -8.2% and 4.4% and -4.9% and -1.3% and -0.5% and 0.9% and -0.4%
- Change in body weight (%) d 30 ([3]; ODM-201 50 mg/kg qd oral): 1.5% and -3.9% and 2.5% and 8.3% and -4.1% and 2.0% and 1.8% and 0.0% and -0.4%
- Change in body weight (%) d 37 ([3]; ODM-201 50 mg/kg qd oral): 5.0% and -6.5% and 1.5% and 6.9% and -7.8% and 2.5% and 1.8% and -0.8% and -4.6%
